Measured values: ChEMBL document CHEMBL1165968, “IKKbeta inhibitors identification part II: ligand and structure-based virtual screening” (Bioorg Med Chem, 2010)

Columns and labels:
[1] = molecular target: T1, Inhibitor of nuclear factor kappa-B kinase subunit beta (Homo sapiens, UniProt O14920); experiment: Inhibition of IKK-beta by TR-FRET assay
T1 sequence (O14920 whole entry): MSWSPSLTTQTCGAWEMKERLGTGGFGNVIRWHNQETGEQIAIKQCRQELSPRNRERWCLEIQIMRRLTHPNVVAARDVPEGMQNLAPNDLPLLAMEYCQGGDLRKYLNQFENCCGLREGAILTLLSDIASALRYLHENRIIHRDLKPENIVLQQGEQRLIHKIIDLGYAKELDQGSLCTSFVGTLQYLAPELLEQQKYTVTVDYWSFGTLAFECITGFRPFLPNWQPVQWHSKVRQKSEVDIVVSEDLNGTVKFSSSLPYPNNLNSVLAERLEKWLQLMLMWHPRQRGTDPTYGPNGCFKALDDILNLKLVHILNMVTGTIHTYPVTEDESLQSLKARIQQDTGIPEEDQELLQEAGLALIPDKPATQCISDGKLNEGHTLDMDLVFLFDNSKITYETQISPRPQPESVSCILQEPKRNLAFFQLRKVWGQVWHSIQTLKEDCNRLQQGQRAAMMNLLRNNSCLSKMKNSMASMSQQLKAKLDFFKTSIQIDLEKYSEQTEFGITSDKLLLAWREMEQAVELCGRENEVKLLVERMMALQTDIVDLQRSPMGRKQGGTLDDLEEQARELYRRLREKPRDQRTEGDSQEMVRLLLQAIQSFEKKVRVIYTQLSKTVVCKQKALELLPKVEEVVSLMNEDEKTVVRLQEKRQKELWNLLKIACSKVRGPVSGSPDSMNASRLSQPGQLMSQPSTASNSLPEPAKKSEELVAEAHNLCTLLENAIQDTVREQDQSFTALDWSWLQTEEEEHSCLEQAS

[2] = molecular target: T2, Inhibitor of nuclear factor kappa-B kinase subunit beta (Homo sapiens) (UniProt O14920); experiment: Inhibition of IKK-beta at 10 uM by TR-FRET assay
T2 sequence (whole entry): T1 sequence (O14920 whole entry)

Row | Structure (SMILES) | IC50 [1] | inhibition [2]
1 | CC1=NN(c2ccc(S(N)(=O)=O)cc2)C(=O)/C1=C/c1ccc(-c2ccc3c(c2)C(=O)NC3=O)o1 | 6.7 µM | 84.8%
2 | COc1ccc(C(=O)Nc2nnc(CC(=O)N/N=C/c3ccc(O)c(OC)c3)s2)cc1 | 10.8 µM | 53.1%
3 | COc1cc(/C=N/NC(=O)Cc2nnc(NC(=O)c3ccc([N+](=O)[O-])cc3)s2)ccc1O | 6.98 µM | 76.4%

Further lines, results first:

Row | IC50 [1] | inhibition [2] | Structure (SMILES)
4 | < 1 µM | – | Cc1cc(N2CCC(O)CC2)nc2sc(C(N)=O)c(N)c12
5 | 0.174 µM | – | N#Cc1c(C2CCCNC2)cc(-c2ccccc2O)nc1N (stereo not drawn)
